Source: PubChem BioAssay AID2036 (NMMLSC, 2009)
Active and inactive are the calls of the source. The rule behind the calls is not given here.

The compounds below were run against Ras-related protein Rab7, wildtype (dog) (assay: extra analogs blocking nucleotide binding to Rab7 – biochemical, additional analogs, wildtype, multiplex bead flow cytometry, SAR follow-up (AID 2036)). Details: Rab7 GTP binding.
For `O=Nc1c(-c2c(O)[nH]c3ccccc23)[nH]c2ccccc12`, the EC50 was “inactive”. For `O=Nc1c(-c2c(O)[nH]c3c(Br)cccc23)[nH]c2ccccc12`, the EC50 was “inactive”. With `O=C1C(c2c(O)[nH]c3c(F)cccc23)=Nc2ccccc21` the EC50 was “inactive”. In the case of `O=C1C(c2c(O)[nH]c3ccccc23)=Nc2ccccc21`, the EC50 is reported as “inactive”. For `O=Nc1c(-c2c(O)[nH]c3c(Cl)cccc23)[nH]c2ccccc12`, the EC50 was “inactive”. For `O=Nc1c(-c2c(O)[nH]c3c(F)cccc23)[nH]c2ccccc12`, the EC50 was “inactive”. `O=C1C(c2c(O)[nH]c3c(Br)cccc23)=Nc2ccccc21` was tested, and the EC50 was “inactive”. For `O=C1C(c2c(O)[nH]c3c(Cl)cccc23)=Nc2ccccc21`, the EC50 was “inactive”. `O=C1N=c2ccccc2=C1c1[nH]c(=S)[nH]c1O` was tested, and the EC50 was “inactive”. For `O=C1N=c2ccccc2=C1c1[nH]c(=O)[nH]c1O`, the EC50 was “inactive”. For `O=Nc1c(-c2c(O)[nH]c3ccc(Br)cc23)[nH]c2ccccc12`, the EC50 was “inactive”. In the case of `O=C1C(c2c(O)[nH]c3ccc(Br)cc23)=Nc2ccccc21`, the EC50 is reported as “inactive”.

Same assay, conditions: Rab7 GTP binding, measured here: Ki from EC50
A Ki of 2170 nM was found for `COc1cc(-c2c(C#N)c(N)n(S(=O)(=O)c3c(C(C)C)cc(C(C)C)cc3C(C)C)c2C(=O)c2ccccc2)cc(OC)c1OC` in this work. A Ki of 1560 nM was found for `O=C1C(c2c(O)[nH]c3c(F)cccc23)=Nc2ccccc21` in this work. A Ki of 540 nM was found for `COc1ccc(S(=O)(=O)n2c(N)c(C#N)c(-c3cncc(Br)c3)c2C(=O)c2ccccc2)cc1` in this work. A Ki of 310 nM was found for `CC(C)Cc1ccc([C@H](C)C(=O)O)cc1` in this work. A Ki of 870 nM was found for `O=C1N=c2ccccc2=C1c1[nH]c(=S)[nH]c1O` in this work. A Ki of 2700 nM was found for `CSc1ccc(/C=C2/C(C)=C(CC(=O)O)c3cc(F)ccc32)cc1` in this work.
